In the supplement of paper PMC10307832:

How the values were obtained:
Assay in all cases: relative viability (nuclei count vs DMSO), 5 days (fraction); higher = more cells survive
[1] = compound: Cc1cnc(Nc2ccc(OCCN3CCCC3)cc2)nc1Nc1cccc(S(=O)(=O)NC(C)(C)C)c1 [Fedratinib] + COc1cccc2cc(-c3nc([C@H]4CC[C@H](C(=O)O)CC4)n4ncnc(N)c34)[nH]c12 [OSI-027] (partner 0.5 µM)
Procedure, shortened: (§1)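 Each reported value is a median over duplicate plates. It expresses relative viability: treated-well nuclei count divided by vehicle-well nuclei count. Lung cancer cell lines in 1536-well plates were dosed by pin tool a day after seeding, alone with one drug or with a fixed anchor-drug dose plus five library-drug doses (not always all listed) in √10 steps, and nuclei were counted after 5 days.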

[2] = compound: Cc1cnc(Nc2ccc(OCCN3CCCC3)cc2)nc1Nc1cccc(S(=O)(=O)NC(C)(C)C)c1 [Fedratinib] + CC1(C)CCC(c2ccc(Cl)cc2)=C(CN2CCN(c3ccc(C(=O)NS(=O)(=O)c4ccc(N[C@H](CCN5CCOCC5)CSc5ccccc5)c(S(=O)(=O)C(F)(F)F)c4)cc3)CC2)C1 [Navitoclax] (partner 0.5 µM)
Procedure, shortened: as §1

[3] = compound: COC1=CC=C(C=C1)COC2=C(C=C(C=C2)CC3=CN=C(N=C3N)N)OC [GW-2580] + CS(=O)(=O)CCNCc1ccc(-c2ccc3ncnc(Nc4ccc(OCc5cccc(F)c5)c(Cl)c4)c3c2)o1 [Lapatinib] (partner 2 µM)
Procedure, shortened: as §1

[4] = compound: Cc1cnc(Nc2ccc(OCCN3CCCC3)cc2)nc1Nc1cccc(S(=O)(=O)NC(C)(C)C)c1 [Fedratinib] + CCNC(=O)c1noc(-c2cc(C(C)C)c(O)cc2O)c1-c1ccc(CN2CCOCC2)cc1 [Luminespib] (partner 0.01 µM)
Procedure, shortened: as §1

[5] = compound: Cc1cnc(Nc2ccc(OCCN3CCCC3)cc2)nc1Nc1cccc(S(=O)(=O)NC(C)(C)C)c1 [Fedratinib] + NC(=O)Nc1cc(-c2cccc(F)c2)sc1C(=O)N[C@H]1CCCNC1 [AZD7762] (partner 0.2 µM)
Procedure, shortened: as §1

[6] = compound: Cc1cnc(Nc2ccc(OCCN3CCCC3)cc2)nc1Nc1cccc(S(=O)(=O)NC(C)(C)C)c1 [Fedratinib] + Cc1nc(Nc2ncc(C(=O)Nc3c(C)cccc3Cl)s2)cc(N2CCN(CCO)CC2)n1 [Dasatinib] (partner 0.075 µM)
Procedure, shortened: as §1

Cell Line	relative viability ([1]; first compound 0.1 µM)	relative viability ([1]; first compound 0.3162 µM)	relative viability ([1]; first compound 1 µM)	relative viability ([2]; first compound 0.1 µM)	relative viability ([2]; first compound 0.3162 µM)	relative viability ([2]; first compound 1 µM)	relative viability ([3]; first compound 0.08 µM)	relative viability ([3]; first compound 0.8 µM)	relative viability ([3]; first compound 2.53 µM)	relative viability ([3]; first compound 8 µM)	relative viability ([4]; first compound 0.1 µM)	relative viability ([4]; first compound 0.3162 µM)	relative viability ([4]; first compound 1 µM)	relative viability ([5]; first compound 0.1 µM)	relative viability ([5]; first compound 0.3162 µM)	relative viability ([5]; first compound 1 µM)	relative viability ([6]; first compound 0.1 µM)	relative viability ([6]; first compound 0.3162 µM)	relative viability ([6]; first compound 1 µM)
HCC-15	0.499	0.705	0.576	0.654	0.635	0.487	0.87	1.08	0.807	0.866	0.114	0.247	0.381	1.19	1.28	1.2	0.508	0.58	0.337
HCC-827	0.817	0.812	0.915	0.949	1.01	1.06	0.225	0.211	0.167	0.152	0.436	0.698	0.492	0.161	0.205	0.219	0.249	0.344	0.298
HOP-62	0.849	0.647	0.719	1.03	1.01	1.07	0.856	0.986	0.997	1.12	0.958	0.924	0.908	0.734	0.566	0.555	0.739	0.6	0.503
LC-2-ad	0.854	0.94	0.609	0.436	0.45	0.3	1.14	0.982	0.992	0.896	1.01	1.06	0.917	0.829	0.863	0.818	0.702	0.636	0.266
LCLC-97TM1	0.715	0.504	0.452	0.275	0.394	0.412	1.02	–	0.973	0.898	0.85	0.758	0.7	0.342	0.154	0.21	0.822	0.831	0.723
LK-2	0.157	0.184	0.16	0.831	1.34	0.777	0.972	0.952	0.513	0.735	0.173	0.169	0.186	0.286	0.393	0.293	0.206	0.227	0.168
LOU-NH91	0.669	0.72	0.664	0.588	0.786	0.575	0.748	0.811	0.649	0.789	0.323	0.4	0.33	0.594	0.857	0.658	0.518	0.518	0.557
LU99A	0.254	0.328	0.272	0.824	0.834	0.666	1.07	1.14	0.698	1.01	0.271	0.302	0.216	0.322	0.325	0.272	0.494	0.508	0.42
